Experimental data from patent US7037656B2, “Methods and compositions for identifying ligands for nuclear receptors” (priority 2000, dated 2006).

Assays:
Assay in all cases: Yeast 6x EcRE-lacZ β-galactosidase transactivation assay
[1] = test system: Cf ΔA/B EcR + RXR β + GRIP1; assay type: cell-based, Choristoneura fumiferana; mouse; settings: RH 5992 10 μM, 4 hours, DMSO control 0.205
Description: (§1) The human RXR α (Genbank accession number X52773), mouse RXR β (Genbank accession number X66224) or mouse RXR γ (Genebank accession number X66225) subtypes were expressed in yeast-E. coli multicopy 2μ expression plasmids under regulation of CUP1 promoter with the LEU2 selective marker (1).
(§2) Briefly, yeast cells are cultured in 5 mL of YPD liquid medium overnight at 30° C. The cell culture was diluted 1:20 in YPD media and further grown until cell density reached an O.D of 0.6. at OD600. The cells were pelleted by centrifugation and washed with 10 mL of TE+0.1M lithium acetate. Cells are then resuspended in 10 mL TE+0.1M lithium acetate and incubated at 30° C. for 1 hour. Cells are collected and resuspended in 0.5 mL of TE+ 0.1M lithium acetate. Aliquots of cells (50 μL), were incubated for 15 minutes at 30° C. with 1–2 μg plasmid DNA in the presence of 5 μg of denatured salmon sperm DNA as DNA carrier. In the case of co-transformation, the indicated plasmids were added simultaneously. 50% polyethyleneglycol of molecular weight 4000, diluted in TE, was added to a final concentration of 35%. DMSO was added to the transformation solution simultaneously to a final concentration 3%. The samples were mixed well by vortexing and incubated for an additional 30 minutes at 30° C. The cell mixture is then heated for 15 minutes at 42° C. […]

[2] = biological target: T1, Cf ΔA/B EcR + RXR γ + GRIP1 (Choristoneura fumiferana, UniProt O77240); assay type: cell-based, Choristoneura fumiferana; mouse; settings: RH 5992 10 μM, 4 hours, DMSO control 0.200
T1 construct: human ubiquitin (76 aa) (N, cleaved yes); expressed in transfected cells; host or cells: yeast (Saccharomyces cerevisiae)
Description: as §1, §2

[3] = biological target: T2, Dm ΔN EcR +Aa USPa-form + GRIP1 (Drosophila melanogaster, UniProt P34021); assay type: cell-based, Drosophila melanogaster; Aedes aegypti; settings: RH 5992 10 μM, 4 hours, DMSO control 0.243
T2 construct: ubiquitin (human, 76 aa) (N, cleaved yes); expressed in transfected cells
Description: as §2, with “35%.” for “35%. DMSO was added to the transformation solution simultaneously to a final concentration 3%. The samples were mixed well by vortexing and incubated for an additional 30 minutes at 30° C. The cell mixture is then heated for 15 minutes at 42° C.”
(§3) Using the transformation method set forth above, yeast were co-transformed with a reporter gene as shown in FIG. 2 and the expression vector encoding the full-length D. melanogaster ecdysone receptor, DmEcR (FIG. 3A) in the presence or absence of the Dm EcR heterodimer partner, DmUSP (FIG. 4A). […] As the N-terminal portion of the Dm EcR receptor is reported to play a role in ligand independent transactivation, an expression vector containing an N-terminal deletion in the EcR was constructed (see FIG. 3B) and assessed in the β-galactosidase assays described above. […]

[4] = biological target: T3, Dm ΔN EcR +Aa USPb-form + GRIP1 (Drosophila melanogaster, UniProt P34021); assay type: cell-based, Drosophila melanogaster; Aedes aegypti; settings: RH 5992 10 μM, 4 hours, DMSO control 0.251
T3 construct: ubiquitin (human, 76 aa) (N, cleaved yes); expressed in transfected cells
Description: as §2, with “35%.” for “35%. DMSO was added to the transformation solution simultaneously to a final concentration 3%. The samples were mixed well by vortexing and incubated for an additional 30 minutes at 30° C. The cell mixture is then heated for 15 minutes at 42° C.”
as §3

[5] = biological target: T4, Dm EcR + DmUSP (Drosophila melanogaster, UniProt P34021); assay type: cell-based; settings: RH 5992 10 μM, 4 hours, DMSO control 2.091
T4 construct: ubiquitin (human, 76 aa) (N, cleaved yes); expressed in transfected cells
Description: (§4) Briefly, yeast cells are cultured in 5 mL of YPD liquid medium overnight at 30° C. The cell culture was diluted 1:20 in YPD media and further grown until cell density reached an O.D of 0.6. at OD600. The cells were pelleted by centrifugation and washed with 10 mL of TE+0.1M lithium acetate. Cells are then resuspended in 10 mL TE+0.1M lithium acetate and incubated at 30° C. for 1 hour. Cells are collected and resuspended in 0.5 mL of TE+ 0.1M lithium acetate. Aliquots of cells (50 μL), were incubated for 15 minutes at 30° C. with 1–2 μg plasmid DNA in the presence of 5 μg of denatured salmon sperm DNA as DNA carrier. In the case of co-transformation, the indicated plasmids were added simultaneously. 50% polyethyleneglycol of molecular weight 4000, diluted in TE, was added to a final concentration of 35%. DMSO was added to the transformation solution simultaneously to a final concentration 3%. The samples were mixed well by vortexing and incubated for an additional 30 minutes at 30° C. The cell mixture is then heated for 15 minutes at 42° C. Cells were then collected and plated onto appropriate yeast selective media. Transformants of 4 plasmids are selected on the complete media without tryptophan, uracil, leucine and histidine.
(§5) The yeast cells grown overnight in selective liquid media at 30° C. were diluted in prewarmed liquid selective media to 0.1 at OD600 (ODculture). 100 μl of the cell culture was spiked to each well of a.96-well microtiter plate. Ligand (2 μl diluted in DMSO) was added to each well giving a final concentration of DMSO of 2%. As a control, 2 μl of DMSO were also added to additional test wells. The final concentration of the tested compounds in the media is 10 μM. The cells were incubated in the presence of ligand in a shaker at 30° C. After 4 hours of incubation, 100 μl of 2× “Z” Sarcosine-ONPG buffer (120 mM Na2HPO4, 80 mM NaH2PO4, 20 mM KCl, 2 mM MgSO4, 100 mM beta-mercaptoethanol (Sigma), pH 7.0, 0.4% lauroyl sarcosine (Sigma), 4 mg/mL ONPG (Diagnostic Chemicals limited) was added to each well and the plate was further incubated at 37° C. The 2× “Z” Sarcosine-ONPG buffer is freshly prepared or stored at −20° C. prior to use. After incubation at 37° C. for 1 hour. The reaction was stopped by adding 100 μL of quenching solution 0.5 M Na2CO3 and OD405 (ODreaction) and beta-galactosidase activity was measured in a micro plate reader (Biotek) at a wave length of 405–450 nanometers. The effect of copper on enhancement of the transactivation response mediated by the ligands tested was studied by adding CuSO4 to the media to a final concentration of 10 μM.
(§6) Using the transformation method set forth above, yeast were co-transformed with a reporter gene as shown in FIG. 2 and the expression vector encoding the full-length D. melanogaster ecdysone receptor, DmEcR (FIG. 3A) in the presence or absence of the Dm EcR heterodimer partner, DmUSP (FIG. 4A). Transformed cells were incubated with DMSO alone as a control or with a proprietary ecdysone receptor ligand (Rohm & Haas compound RH5992—tebufenozide) at final concentration 10 μM for 4 hours. The samples were then assayed for β-galactosidase activity as described above. […] As the N-terminal portion of the Dm EcR receptor is reported to play a role in ligand independent transactivation, an expression vector containing an N-terminal deletion in the EcR was constructed (see FIG. 3B) and assessed in the β-galactosidase assays described above. […] Restoration of ligand dependent transactivation was observed only when the DmΔN EcR, DmUSP and co-activator GRIP1 were coexpressed. See Table I. The data obtained indicate that the efficiency of ligand-dependent transactivation of the ecdysone receptor requires both heterodimer formation between EcR and USP, and proper interaction with co-activator GRIP1. […]

[6] = biological target: T5, Dm ΔN EcR + DmUSP (Drosophila melanogaster, UniProt P34021); assay type: cell-based; settings: 4 hours
T5 construct: ubiquitin (human, 76 aa) (N, cleaved yes); expressed in transfected cells
Description: as §4, §5, §6

T5 sequence (P34021 221-878 limits assumed, stated change not applied): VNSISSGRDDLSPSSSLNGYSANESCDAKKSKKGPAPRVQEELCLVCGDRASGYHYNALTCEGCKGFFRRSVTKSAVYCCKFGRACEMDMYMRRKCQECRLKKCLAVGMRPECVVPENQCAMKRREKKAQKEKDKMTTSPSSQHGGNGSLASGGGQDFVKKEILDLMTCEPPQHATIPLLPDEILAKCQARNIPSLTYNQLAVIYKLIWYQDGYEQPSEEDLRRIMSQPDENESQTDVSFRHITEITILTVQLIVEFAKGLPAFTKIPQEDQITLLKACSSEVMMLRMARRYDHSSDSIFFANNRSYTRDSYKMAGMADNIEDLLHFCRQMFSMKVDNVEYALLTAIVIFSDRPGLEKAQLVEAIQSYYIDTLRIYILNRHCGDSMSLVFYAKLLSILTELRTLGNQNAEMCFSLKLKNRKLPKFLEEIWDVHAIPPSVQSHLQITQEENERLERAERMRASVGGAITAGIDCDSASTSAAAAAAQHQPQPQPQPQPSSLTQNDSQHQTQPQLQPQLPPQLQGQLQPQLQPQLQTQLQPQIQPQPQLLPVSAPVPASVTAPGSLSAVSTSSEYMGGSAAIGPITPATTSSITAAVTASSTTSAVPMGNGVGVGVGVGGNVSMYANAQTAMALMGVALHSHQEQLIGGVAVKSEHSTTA
T5 sequence (P20153 whole entry partner): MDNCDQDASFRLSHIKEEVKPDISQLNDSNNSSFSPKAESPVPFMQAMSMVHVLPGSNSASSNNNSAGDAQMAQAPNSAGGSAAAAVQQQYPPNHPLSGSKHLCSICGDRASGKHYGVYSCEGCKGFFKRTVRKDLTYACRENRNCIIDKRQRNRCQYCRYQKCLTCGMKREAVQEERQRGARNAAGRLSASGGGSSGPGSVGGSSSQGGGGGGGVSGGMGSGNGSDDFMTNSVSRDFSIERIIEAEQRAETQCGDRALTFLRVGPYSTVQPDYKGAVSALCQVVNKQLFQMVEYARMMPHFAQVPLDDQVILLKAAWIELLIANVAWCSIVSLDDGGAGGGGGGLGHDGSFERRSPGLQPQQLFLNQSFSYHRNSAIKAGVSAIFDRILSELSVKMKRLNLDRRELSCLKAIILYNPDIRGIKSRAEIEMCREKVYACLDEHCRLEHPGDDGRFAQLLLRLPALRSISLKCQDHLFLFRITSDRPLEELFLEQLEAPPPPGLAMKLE
T2 sequence (P34021 221-878, stated change not applied): as the sequence (P34021 221-878 limits assumed, stated change not applied) above
T3 sequence (P34021 221-878, stated change not applied): as the sequence (P34021 221-878 limits assumed, stated change not applied) above
T1 sequence (O77240 entry or part of it, stated change not applied): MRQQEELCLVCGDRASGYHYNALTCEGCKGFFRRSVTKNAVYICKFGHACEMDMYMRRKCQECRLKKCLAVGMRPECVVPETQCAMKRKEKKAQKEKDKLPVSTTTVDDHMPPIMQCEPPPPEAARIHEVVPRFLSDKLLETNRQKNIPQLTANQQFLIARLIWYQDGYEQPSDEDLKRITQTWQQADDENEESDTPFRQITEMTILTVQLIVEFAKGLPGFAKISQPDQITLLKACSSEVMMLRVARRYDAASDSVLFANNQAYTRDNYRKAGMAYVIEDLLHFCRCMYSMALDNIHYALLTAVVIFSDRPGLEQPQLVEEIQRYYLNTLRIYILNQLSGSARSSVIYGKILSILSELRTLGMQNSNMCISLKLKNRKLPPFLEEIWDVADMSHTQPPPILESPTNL
T1 sequence (P28705 whole entry partner): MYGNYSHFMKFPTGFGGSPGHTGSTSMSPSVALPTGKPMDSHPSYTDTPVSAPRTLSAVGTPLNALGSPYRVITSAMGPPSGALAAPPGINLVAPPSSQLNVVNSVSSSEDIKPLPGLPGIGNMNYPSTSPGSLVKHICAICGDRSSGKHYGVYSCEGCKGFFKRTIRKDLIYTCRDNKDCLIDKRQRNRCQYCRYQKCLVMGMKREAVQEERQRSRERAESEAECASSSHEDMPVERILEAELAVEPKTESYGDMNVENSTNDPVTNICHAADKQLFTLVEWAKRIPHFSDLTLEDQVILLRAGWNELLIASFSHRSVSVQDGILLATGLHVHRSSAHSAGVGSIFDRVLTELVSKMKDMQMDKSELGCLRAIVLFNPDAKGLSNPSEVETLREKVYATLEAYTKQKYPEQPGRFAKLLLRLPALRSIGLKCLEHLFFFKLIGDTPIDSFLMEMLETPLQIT
T4 sequence (P34021 whole entry): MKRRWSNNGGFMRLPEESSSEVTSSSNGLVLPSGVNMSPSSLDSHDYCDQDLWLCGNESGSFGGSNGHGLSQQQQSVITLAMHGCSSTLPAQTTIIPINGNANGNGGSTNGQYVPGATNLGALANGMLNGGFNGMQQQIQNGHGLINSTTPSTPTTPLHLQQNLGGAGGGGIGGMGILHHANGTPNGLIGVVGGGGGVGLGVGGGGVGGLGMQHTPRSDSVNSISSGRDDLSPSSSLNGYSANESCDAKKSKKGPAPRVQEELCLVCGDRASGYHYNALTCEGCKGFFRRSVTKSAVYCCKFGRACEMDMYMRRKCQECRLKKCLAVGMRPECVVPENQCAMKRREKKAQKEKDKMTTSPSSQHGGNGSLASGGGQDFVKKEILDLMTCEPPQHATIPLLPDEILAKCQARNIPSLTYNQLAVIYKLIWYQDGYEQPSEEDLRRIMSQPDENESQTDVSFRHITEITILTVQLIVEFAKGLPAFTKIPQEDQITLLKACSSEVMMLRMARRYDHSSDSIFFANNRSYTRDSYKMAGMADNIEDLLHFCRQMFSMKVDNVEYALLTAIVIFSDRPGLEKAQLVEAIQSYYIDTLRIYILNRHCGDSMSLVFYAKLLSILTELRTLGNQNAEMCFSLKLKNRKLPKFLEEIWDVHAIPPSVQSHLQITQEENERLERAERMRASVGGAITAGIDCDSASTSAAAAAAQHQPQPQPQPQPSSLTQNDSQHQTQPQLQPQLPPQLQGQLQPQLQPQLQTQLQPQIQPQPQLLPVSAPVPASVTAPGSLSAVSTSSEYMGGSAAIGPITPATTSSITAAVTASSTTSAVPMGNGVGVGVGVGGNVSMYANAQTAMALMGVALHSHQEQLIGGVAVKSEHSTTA
T4 sequence (P20153 whole entry partner): as the sequence (P20153 whole entry partner) above

`CCc1ccc(C(=O)NN(C(=O)c2cc(C)cc(C)c2)C(C)(C)C)cc1` [RH 5992, tebufenozide] showed a β-galactosidase activity [1] of 0.456, a β-galactosidase activity [2] of 1.030 and a β-galactosidase activity [3] of 1.860. For the same compound, the β-galactosidase activity [4] was 2.068, the β-galactosidase activity [5] was 1.953 and the “transactivation of the reporter gene (in words)” value ([6]; 10 μM, DmEcR with N-terminal deletion, DmUSP present or absent, no GRIP1) was “incapable of transactivating the reporter gene”. For the same compound, the β-galactosidase activity ([6]; RH 5992 10 μM, yeast, Dm ΔN EcR + DmUSP, DMSO control 0.152) was 0.182.
